Measured values published in US20230391748A1, “BICYCLIC INHIBITORS OF IRAK” (priority 2022, published 2023).
pIC50: −log10 of the molar value.

What was measured:
IRAK4 = IRAK4 (Homo sapiens (Human), UniProt Q9NWZ3); test: IRAK4 ADP-Glo Assay; assay type: biochemical; conditions: MBP substrate
Procedure, shortened: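 Human IRAK4 kinase reaction with MBP substrate plus ATP in Tris-HCl/MgCl2/BSA/DTT buffer, pH 7.4, run 60 min at room temperature or 30 min at 30 °C. ADP formed was measured by ADP-Glo luminescence after ATP depletion (40 min) and detection reagent (30 min).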

IL23p19 in THP-1 Cells = test: LPS Induced IL23p19 in THP-1 Cells (with IFNγ Primed) Assay; assay type: cell-based; conditions: Homo sapiens, THP-1, 18 h, read-out: IL23 (THP, LPS) (IC50, μM)
Procedure, shortened: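 THP-1 cells (50K/well) primed with IFNγ (50 ng/mL) about 18 h, then given compound and stimulated with LPS for 18 h at 37 °C. Secreted IL-23p19 measured by sandwich ELISA with chemiluminescent read-out, giving EC50. Cell Titer Glo used on the remaining cells for toxicity.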

TNF-α in human PBMCs = test: R848-induced TNF-α in human PBMCs Assay; assay type: cell-based; conditions: Homo sapiens, PBMC, 4 h, read-out: TNFα (PBMC, R848) (IC50, μM)
Procedure, shortened: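 Human PBMCs at 200K/well were pretreated with compound, then R848-stimulated for 4 h at 37 °C, 5% CO2. Supernatant TNF-α quantified by chemiluminescent ELISA; EC50 from curve fitting.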

[1] = system: TNF-α in Human Primary Monocyte-Derived Dendritic Cells; test: Gardiquimod-Induced TNF-α in Human Primary Monocyte-Derived Dendritic Cells; assay type: cell-based; conditions: Dendritic cell, IFNγ-primed monocyte-derived dendritic cells, 4 μg/ml Gardiquimod, 6 hours, TNF-α ELISA, read-out: TNFα (DC, GARD) (IC50)
Procedure, shortened: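 Monocytes differentiated 7 days with GM-CSF and IL-4, then primed 24 h with 50 ng/ml IFN-γ. Compound added 1 h before 6 h stimulation with 4 μg/ml Gardiquimod, 0.5% DMSO final. Supernatant TNF-α measured by chemiluminescent ELISA; EC50 from curve fitting.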

Sequence of IRAK4 (Q9NWZ3 whole entry): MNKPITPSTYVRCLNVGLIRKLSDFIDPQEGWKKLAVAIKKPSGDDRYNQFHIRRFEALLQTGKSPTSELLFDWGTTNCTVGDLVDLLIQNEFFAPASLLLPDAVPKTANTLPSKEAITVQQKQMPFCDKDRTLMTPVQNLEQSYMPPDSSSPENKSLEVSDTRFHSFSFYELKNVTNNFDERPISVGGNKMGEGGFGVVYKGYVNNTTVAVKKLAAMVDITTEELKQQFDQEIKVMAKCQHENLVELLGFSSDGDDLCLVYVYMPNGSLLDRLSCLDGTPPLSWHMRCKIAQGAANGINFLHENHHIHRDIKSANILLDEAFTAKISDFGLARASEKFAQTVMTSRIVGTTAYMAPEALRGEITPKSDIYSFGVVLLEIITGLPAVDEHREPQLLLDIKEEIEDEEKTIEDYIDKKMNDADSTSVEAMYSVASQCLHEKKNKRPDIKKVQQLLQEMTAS

| SMILES | pIC50 (IRAK4) | IC50 (IL23p19 in THP-1 Cells) [µM] | IC50 (TNF-α in human PBMCs) [µM] | pIC50 [1] |
| --- | --- | --- | --- | --- |
| CC(C)Oc1cc2c(OC[C@@H]3CCC(=O)N3)ncc(C#CC3CCOCC3)c2cc1C(N)=O [Compound I-6, (S)-7-isopropoxy-1-((5-oxopyrrolidin-2-yl)methoxy)-4-((tetrahydro-2H-pyran-4-yl)ethynyl)isoquinoline-6-carboxamide] | 8.29 | 0.195 | 0.199 | 6.48 |
| CC(C)Oc1cc2c(OC[C@@H]3CCC(=O)N3)ncc(C#CC3CCN(C)CC3)c2cc1C(N)=O [Compound I-18, (S)-7-isopropoxy-4-((1-methylpiperidin-4-yl)ethynyl)-1-((5-oxopyrrolidin-2-yl)methoxy)isoquinoline-6-carboxamide] | 8.64 | 0.606 | 0.306 | 6.69 |
| CCO[C@H]1CC[C@@H](C#Cc2cnc(OC[C@@H]3CCC(=O)N3)c3cc(OC(C)C)c(C(N)=O)cc23)CC1 [Compound I-21, 4-((cis-4-ethoxycyclohexyl)ethynyl)-7-isopropoxy-1-(((S)-5-oxopyrrolidin-2-yl)methoxy)isoquinoline-6-carboxamide] | 8.25 | 0.194 | 0.104 | 6.99 |
| COC(=O)N1CCC(C#Cc2cnc(OC[C@@H]3CCC(=O)N3)c3cc(OC(C)C)c(C(N)=O)cc23)CC1 [Compound I-16, methyl (S)-4-((6-carbamoyl-7-isopropoxy-1-((5-oxopyrrolidin-2-yl)methoxy)isoquinolin-4-yl)ethynyl)piperidine-1-carboxylate] | 7.92 | 0.0886 | 0.0474 | 6.61 |
| COC1(OC)CC(C#Cc2cnc(OC[C@@H]3CCC(=O)N3)c3cc(OC(C)C)c(C(N)=O)cc23)C1 [Compound I-30, (S)-4-((3,3-dimethoxycyclobutyl)ethynyl)-7-isopropoxy-1-((5-oxopyrrolidin-2-yl)methoxy)isoquinoline-6-carboxamide] | 8.19 | 0.142 | 0.0947 | 7.15 |
| CC(C)Oc1cc2c(OC[C@@H]3CCC(=O)N3)ncc(-c3cnn(C4CCN(C)CC4)c3)c2cc1C(N)=O [Compound I-46, (S)-7-isopropoxy-4-(1-(1-methylpiperidin-4-yl)-1H-pyrazol-4-yl)-1-((5-oxopyrrolidin-2-yl)methoxy)isoquinoline-6-carboxamide] | 7.81 | 5.42 | 1.25 | 6.33 |
| CC(C)Oc1cc2c(O[C@@H]3CCCN(C(=O)CC#N)C3)ncc(C#CC3CCN(C(=O)OC(C)(C)C)CC3)c2cc1C(N)=O [Compound I-95, tert-butyl (R)-4-((6-carbamoyl-1-((1-(2-cyanoacetyl)piperidin-3-yl)oxy)-7-isopropoxyisoquinolin-4-yl)ethynyl)piperidine-1-carboxylate] | 7.16 | 1.56 | 2.1 | 6.07 |
| CC(C)Oc1cc2c(OC[C@@H]3CCC(=O)N3)ncc(-c3cnn(C4CC4)c3)c2cc1C(N)=O [Compound I-32, (S)-4-(1-cyclopropyl-1H-pyrazol-4-yl)-7-isopropoxy-1-((5-oxopyrrolidin-2-yl)methoxy)isoquinoline-6-carboxamide] | 8.07 | 2.21 | 0.45 | 6.24 |
| CCO[C@H]1CC[C@H](C#Cc2cnc(OC[C@@H]3CC(F)(F)C(=O)N3)c3cc(OC(C)C)c(C(N)=O)cc23)CC1 [Compound I-58, 1-(((S)-4,4-difluoro-5-oxopyrrolidin-2-yl)methoxy)-4-(((1r,4S)-4-ethoxycyclohexyl)ethynyl)-7-isopropoxyisoquinoline-6-carboxamide] | 6.14 | 2960 | 1.56 | 7.65 |
| CCO[C@H]1CC[C@H](C#Cc2cnc(O[C@@H]3CCCN(C(=O)CC#N)C3)c3cc(OC(C)C)c(C(N)=O)cc23)CC1 [Compound I-98, 1-(((R)-1-(2-cyanoacetyl)piperidin-3-yl)oxy)-4-(((1r,4R)-4-ethoxycyclohexyl)ethynyl)-7-isopropoxyisoquinoline-6-carboxamide] | 7.59 | 0.484 | 0.22 | 6.87 |
| CC(C)Oc1cc2c(O[C@@H]3CCCNC3)ncc(-c3cnn(C4CCOCC4)c3)c2cc1C(N)=O [Compound I-111, (R)-7-isopropoxy-1-(piperidin-3-yloxy)-4-(1-(tetrahydro-2H-pyran-4-yl)-1H-pyrazol-4-yl)isoquinoline-6-carboxamide] | 5.84 | 15.5 | 3.46 | 5.64 |
| CC(C)Oc1cc2c(O[C@@H]3CCCNC3)ncc(C#CCC3CCOCC3)c2cc1C(N)=O [Compound I-87, (R)-7-isopropoxy-1-(piperidin-3-yloxy)-4-(3-(tetrahydro-2H-pyran-4-yl)prop-1-yn-1-yl)isoquinoline-6-carboxamide] | 7.28 | 5.02 | 1.97 | 6.11 |
| CC(C)Oc1cc2c(OC[C@@H]3CC(F)(F)C(=O)N3)ncc(-c3cnn(C4CCOCC4)c3)c2cc1C(N)=O [Compound I-70, (S)-1-((4,4-difluoro-5-oxopyrrolidin-2-yl)methoxy)-7-isopropoxy-4-(1-(tetrahydro-2H-pyran-4-yl)-1H-pyrazol-4-yl)isoquinoline-6-carboxamide] | 8.17 | 2.26 | 0.292 | 7.08 |
| CC(C)Oc1cc2c(OC[C@@H]3CC(F)(F)C(=O)N3)ncc(-c3cnn(C4CCNCC4)c3)c2cc1C(N)=O [Compound I-75, (S)-1-((4,4-difluoro-5-oxopyrrolidin-2-yl)methoxy)-7-isopropoxy-4-(1-(piperidin-4-yl)-1H-pyrazol-4-yl)isoquinoline-6-carboxamide] | 8.40 | 85.4 | 6.64 | 5.34 |
| CC(C)Oc1cc2c(OC[C@@H]3CC(F)(F)C(=O)N3)ncc(-c3cnn(C4CCN(C)CC4)c3)c2cc1C(N)=O [Compound I-76, (S)-1-((4,4-difluoro-5-oxopyrrolidin-2-yl)methoxy)-7-isopropoxy-4-(1-(1-methylpiperidin-4-yl)-1H-pyrazol-4-yl)isoquinoline-6-carboxamide] | 8.62 | 1.11 | 0.375 | 6.34 |
